# Experimental data as given in patent US20090054720A1, “Use of histone deacetylase inhibitors in combination with radiation for the treatment of cancer” (priority 2002, published 2009).
# Legend:
# LNCaP spheroids [1] = assay: LNCaP spheroid growth (volume monitoring); type: cell-based, human; conditions: for growth delay: 5-day incubation, vs untreated
# Procedure: Cell concentrations were determined by counting trypsinized cells with a hemocytometer. […] The entire content of the above references is hereby incorporated by reference.
# The medium was inoculated at 6.7×10^4 cells/mL from trypsinized stock cultures. The resulting suspension was used to seed 100 mm plates with approximately 10^6 cells. After an incubation of 5-7 days, spheroids of ˜200 μm diameter were selected under an inverted phase-contrast microscope (Axiophot 2; Carl Zeiss Ltd., Gottingen, Germany) fitted with an ocular scale using an Eppendorf pipette.
# TREATMENT PROTOCOLS: After each treatment, spheroids were washed three times by suspension in fresh medium. […] A minimum of 12 spheroids was used for each condition in duplicate experiments.
# The antibody was obtained from the laboratory of David Scheinberg, M. D., Ph.D., Memorial Sloan-Kettering Cancer Center.
# Following complete treatment, washed spheroids were placed in separate agar-prepared wells of a 24 well plate. Untreated spheroids were washed and separated immediately after initial selection. The medium in each well was replaced, and volume measurements preformed, twice per week. Using the inverted microscope and ocular scale described previously, the major and minor diameter, dmax and dmin respectively, were determined and spheroid volume calculated as V=(⅙)·π·dmax·dmin^2. Volume monitoring was stopped once a spheroid had exceeded the field of view of the microscope or had fragmented into individual cells or multiple smaller cell clusters.
# We describe this relationship through the inequality:
# avg(V|S=5M, R=6 Gy)<C+{avg(V|S=5 μM, R=0)−C}+{avg(V|S=0, R=6 Gy)−C}
# To test for synergy, we computed 2000 bootstrap replicates of the average log AUC, for each of the four groups, and computed the proportion of replicates where the inequality was not obtained. This proportion is termed the achieved significance level (p-value).
# LNCaP spheroids [2] = assay: Outgrowth assay (colony formation) of spheroids that did not regrow; type: cell-based, human; conditions: 5 μM SAHA 96 h in combination with 6 Gy external beam radiation
# LNCaP spheroids [3] = assay: TUNEL staining of spheroid sections (apoptosis); type: cell-based, human; conditions: for TUNEL staining (apoptosis): SAHA alone
# Procedure: At 0, 6, 24, or 48 h post treatment spheroids were washed in cold media, fixed for 4 hr in 4% paraformaldehyde, and placed in paraffin blocks. Serial 5-μm sections of the blocks were cut using a microtome and mounted on poly-L-lysine-coated slides that were fixed in ice cold acetone for 10 min.
# A final, 2 min incubation in Hematoxylin was used to counterstain sections. Untreated spheroids were used as controls; positive controls were created using DNase I (Boehringer, Ingelheim, Germany). Images were captured digitally from an inverted phase-contrast microscope using a coupled Pixera Professional Camera and associated software (Pixera Visual Communication Suite, Pixera, Los Gatos, Calif.). Images were scored for positive staining as percentage of reactive cells within the spheroid section.
# A two-tailed T test was used to test for significant differences in the percentage of positively stained cells.
# [4] = test system: LNCaP monolayer cell culture; conditions: cited from earlier work
# [5] = test system: prostate tumor xenografts; conditions: nude mice (Butler et al. 2000); cited from earlier work
# [6] = continuous exposure at 5 μM SAHA
compound,measurement,setting,value
Ac225-HuM195: recombinant humanized Anti-CD33 monoclonal antibody which has been radiolabelled with actinium225,spheroid growth,LNCaP spheroids [1]; 100 nCi/mL Ac225-HuM195 for 24 hours alone,did not cause growth inhibition
"O=C(CCCCCCC(=O)Nc1ccccc1)NO [SAHA, Suberoylanilide hydroxamic acid]",growth delay,LNCaP spheroids [1]; 1.25 μM SAHA,4 days
same,spheroid growth,"LNCaP spheroids [1]; 1.25 μM SAHA, 120-hour and continuous exposure",delayed but not arrested
same,growth delay,LNCaP spheroids [1]; 2.5 μM SAHA,7 days
same,spheroid growth,"LNCaP spheroids [1]; 2.5 μM SAHA, over the 120 h incubation period",complete growth arrest
same,"statistical analysis of synergy (log AUC of tumor volume curve, bootstrap)","LNCaP spheroids [1]; 5 μM SAHA 96 h + 6 Gy vs additive model, p<0.01",synergistic inhibition of tumor growth
same,spheroid growth,LNCaP spheroids [1]; 5 μM SAHA 96 h in combination with 6 Gy external beam radiation after 48 h,complete growth inhibition
same,delay in spheroid growth,LNCaP spheroids [1]; 5 μM SAHA 120 h in combination with 3 Gy external beam radiation,7 days
same,growth delay,LNCaP spheroids [1]; 5 μM SAHA,13 days
same,time of incubation until complete spheroid disruption,"LNCaP spheroids [1]; 5 μM SAHA, continuous incubation",13 to 16 days
same,median volume reduction,"LNCaP spheroids [1]; 5 μM SAHA, five days following a 120 hour incubation",2.4 fold
same,spheroid growth,LNCaP spheroids [1]; 24 hour exposure to 100 nCi/mL Ac225-HuM195 followed by 96 h incubation with 5 μM SAHA,complete growth inhibition
same,initial delay of spheroid growth,LNCaP spheroids [1]; 96 h exposure to 5 μM SAHA alone (Example 5),10 days
same,spheroid growth after the initial delay,"LNCaP spheroids [1]; 96 h exposure to 5 μM SAHA alone, after a period of 30 days (Example 5)",spheroid growth to almost the levels of control untreated spheroid volume
same,spheroid growth,LNCaP spheroids [1]; continuous exposure at 2.5 μM SAHA,complete growth suppression
same,day by which the majority of spheroids disaggregated,LNCaP spheroids [1]; [6],≤ 20 days
same,spheroid volume,LNCaP spheroids [1]; [6],rapid loss in spheroid volume
same,spheroids forming colonies in the outgrowth assay,LNCaP spheroids [2],none of the 12 spheroids forming colonies
same,TUNEL staining (apoptosis),"LNCaP spheroids [3]; 48 h after the end of SAHA incubation (5 μM, 96 h)",apoptotic cells are found throughout the spheroid
same,TUNEL staining pattern compared with SAHA alone,"LNCaP spheroids [3]; SAHA (5 μM, 96 h) and 6 Gy radiation",almost identical pattern
same,mode of cell death following exposure to SAHA,LNCaP spheroids [3]; TUNEL staining and spheroid morphology,predominantly by apoptosis
same,TUNEL staining (apoptosis),LNCaP spheroids [3]; immediately after the end of a 96 h SAHA incubation (5 μM),majority of cells on the spheroid surface have undergone apoptosis
same,monolayer cell growth,"[4]; 2.5 μM SAHA, over a 4-day period (Butler et al. 2000)",complete growth suppression with minimal to no cell kill
same,monolayer cell kill,[4]; 5 μM SAHA (Butler et al. 2000),progressive cell kill starting after 48 hours
same,toxicity,[5],minimal to no detectable toxicity
